Measurements published in patent US20250270648A1, “MOLECULAR SIGNATURE FOR ASSESSING THE RESPONSIVENESS OF CANCER TO MITOCHONDRIA-TARGETED ANTIOXIDANTS” (UNIVERSITÉ CATHOLIQUE DE LOUVAIN, priority 2021, published 2025).

How the values were obtained:
[1] = test system: MDA-MB-231 cells; assay: Migration towards 0.5% serum, chemotaxis chamber; format: cell-based, human; details: indicated doses of cisplatin + 100 nM MitoQ
Protocol: (§1) Previous to migration and invasion assays, cells were pretreated with the indicated amounts of drugs for 16 h, and left to recover for 6 h in full culture medium. Migration assays were performed in a NeuroProbe® standard 48-well chemotaxis chamber according to manufacturer's instructions. Briefly, the bottom chamber was filled with DMEM containing 0.5% serum as a chemo-attractant. Fifty thousand cells were seeded in the upper chamber in the same medium but without serum ±MitoQ where indicated, and allowed to migrate overnight through an 8-μm pore-size polycarbonate membrane. A similar stimulation protocol was used for invasion assays, with the difference of using Matrigel-coated transwells (Corning®). With MCF7 cells, membranes were previously incubated for 30 min with a solution of Vitronectin 10 μg/ml (Sigma-Aldrich®, #SRP3186). Migrated/invaded cells were fixed and stained with 100 μl of a 0.23% crystal violet solution (Sigma-Aldrich®, #C0775) for 10 min before counting on a SpectraMax™ i3 spectrophotometer equipped with a MiniMax imaging cytometer, using the SoftMax Pro software. Data were normalized to vehicle-treated cells (control).

[2] = test system: MCF7 cells; assay: Migration towards 0.5% serum, chemotaxis chamber; format: cell-based, human; details: 0.1 μg/mL DXR + 100 nM MitoQ
Protocol: as §1

[3] = test system: MDA-MB-231 cells; assay: Cell cycle, flow cytometry with propidium iodide; format: cell-based, human; details: MitoQ 100 nM, 48 h
Protocol: Cells were seeded in 6-well plates at a density of 500,000 cells/well and allowed to adhere overnight. Cells were then starved in 0.1% FBS medium for 24 h and treated for 48 h±MitoQ. Afterwards, they were detached with trypsin-EDTA (0.05%) (Gibco®, cat #25300054) and centrifuged at 1,200 rpm for 5 min. Culture medium was discarded, and the pellets washed. Cells were fixed by adding 700 μL of ice-cold ethanol 100% in 300 μL of cell suspension in PBS. Cells were then washed twice with 1 mL of Tris buffer with 0.2% (v/v) Triton X-100, and finally resuspended in 300 μL of PBS with RNase (0.2 mg/mL) and propidium iodide (5 μg/mL). At least 10^4 events were acquired using a FACSCalibur™ flow cytometer (Becton Dickinson®), and the FlowJo cell cycle analysis tool was used to analyze data according to DNA content.

[4] = test system: MDA-MB-231 cancer cells; assay: Cell morphology, H&E; format: cell-based, human; details: MitoQ 100 to 500 nM, 48 h
Protocol: (§2) To visualize cell morphology, MDA-MB-231, SkBr3 and MDA-MB-436 cells were seeded in 24-well plates and treated ±MitoQ for 48 h, fixed in 100% methanol for 10 min stained with hematoxylin and eosin (H&E) for 10 min each, washed with water and dried. Pictures were acquired on an Axiovert 40 CFL microscope (Zeiss®) equipped with a MRC camera (Zeiss®).

[5] = test system: SkBr3 cancer cells; assay: Cell morphology, H&E; format: cell-based, human; details: MitoQ 100 to 500 nM, 48 h
Protocol: as §2

[6] = test system: MMTV-PyMT mice; assay: Spontaneous metastatic breast cancer, FEC ±MitoQ; format: in vivo, mouse; details: 6 weeks
Text: Female FVB/N-Tg(MMTV-PyMT)634Mul/J (MMTV-PyMT) mice that express the polyomavirus middle T antigen spontaneously develop orthotropic multifocal breast adenocarcinomas that spontaneously disseminate metastases to the lungs during mouse lifetime. For spontaneous metastasis assays, female MMTV-PyMT mice (The Jackson Laboratory) were daily observed for signs of spontaneous primary tumors starting at 6 weeks of age. Once tumors became palpable, 4 additional weeks were waited to mimic a clinical time frame between first tumor signs and treatment initiation. Ten weeks-old mice with primary tumors of ˜0.8 cm in diameter received a single dose of FEC chemotherapy (100 mg/Kg 5-FU, 5 mg/Kg epirubicin, 100 mg/Kg cyclophosphamide), a clinically relevant neoadjuvant or adjuvant chemotherapeutic combination. Animals were then randomly assigned to a group receiving daily 18 mg/Kg MitoQ or an equal volume of vehicle by oral gavage. They were sacrificed at 16 weeks-old, and the lungs insufflated with Indian ink for metastasis quantification as described above. Primary tumors were collected, weighted, and processed for RT-qPCR.

With `COC1=C(OC)C(=O)C(CCCCCCCCCC[P+](c2ccccc2)(c2ccccc2)c2ccccc2)=C(C)C1=O` [MitoQ] the “breast cancer cell migration in the presence of cisplatin” value [1] was “repressed”, the DXR-stimulated cell migration [2] was “inhibited” and the cell cycle [3] was “not altered”. For the same compound, the Morphological changes [4] was “not obvious”, the Morphological changes [5] was “not obvious” and the “number of surface lung metastases” value ([6]; FEC + MitoQ 18 mg/kg daily oral vs FEC + vehicle) was “significantly repressed”. The “total primary tumor weight” value ([6]; FEC + MitoQ 18 mg/kg daily oral vs FEC + vehicle, P=0.1395) was “not altered” and the mice metastasis-free ([6]; FEC + MitoQ 18 mg/kg daily oral, all 15 FEC+ control mice had metastases) was 4 of 21.
